# Test results published in patent publication US7173010B2, “Orphanin FQ receptor” (Regents of the University of Michigan, priority 2003, dated 2007).
# No end group written: not given here.
# Legend:
# [1] = system: circular muscle strips of distal colon; assay: Spontaneous contraction of circular muscle strips of distal colon from rats with postoperative ileus, in vitro; parameters: species or system rat; conditions: strips from rats with PI, 4 h after surgery
# Description: In vitro and in vivo colonic motility studies were performed using a known rat model of PI. Rats equipped with a colonic cannula underwent a sham operation or laparotomy plus simple cecum manipulation. Circular muscle strips of distal colon were studied in vitro 4 h after surgery. Cecum manipulation reduced spontaneous colonic muscle contraction by 50% compared to sham operation. […] Similarly, OFQ (10^−7 mol/L) reversed the inhibitory effects; contraction increased 450±60% over basal. […] ATP in myenteric neurons increased 2.5-fold, as measured by quinacrine immunofluorescence. In response to electrical field stimulation, ATP release (luciferase assay) from colonic tissue after cecum manipulation was 50% more than after sham operation. In vivo measurement of colonic transit using carmine migration was performed 4 h after cecum manipulation. In sham-operated rats, carmine migrated 90.8±6.5% of the colon length in 2 h. Cecum manipulation slowed transit 68±5% compared to sham operation. OFQ dose-dependently reversed delayed colonic transit evoked by cecum manipulation (0.5 and 1 nmol/L OFQ improved transit to 76±4% and 94±3%). […] These changes contribute to delayed colonic transit. OFQ, a potent inhibitor of purinergic transmission, reversed PI in rats.
# colonic contractions = assay: Colonic contractions after infusion of peptide; type: in vivo
# colonic transit = assay: Colonic transit (geometric center) after subcutaneous administration; type: in vivo
# [2] = target: T1, Orphanin FQ receptor (OFQR) (Rattus norvegicus, UniProt P35370); assay: Inhibition of [^125I] Y14-OFQ17 binding / specific OFQ binding in Cos-7 cells transfected with normal OFQR gene; conditions: Cos-7 cells transfected with OFQR gene; for IC50: read-out: IC50, concentration dependent inhibition of [^125I] Y14-OFQ17 binding
# T1 construct: expressed in transfected cells; host or cells: Cos-7
# OFQ receptor = target: T2, OFQ receptor (Rattus norvegicus, UniProt P35370); type: cell-based; conditions: Cos-7 cells transfected with OFQ receptor gene
# T2 construct: in Cos-7 cells transfected with OFQ receptor gene; expressed in transfected cells; host or cells: Cos-7
# Text: Orphanin FQ is a neuropeptide that structurally resembles an opioid peptide. […] While not being limited to any particular mechanism, the present invention contemplates that Orphanin FQ stimulates peristalsis and enhances colonic transit by inhibiting purinergic pathways in myenteric plexus. To delineate the molecular interactions between OFQR and its ligands, Cos-7 cells were transfected with normal or chimeric OFQR genes. […] The ability of Orphanin FQ and related peptides to inhibit cAMP production in Cos-7 cells was evaluated. […] Dynorphin encoding nucleic acids and gene products are known in the art, see for example, NM_024411, NM_133828, NM_174139, NM_018863, M10088, AH002816, K02268, K02267, Alo34562, U58500, and U38912.
# T1 sequence (P35370 whole entry): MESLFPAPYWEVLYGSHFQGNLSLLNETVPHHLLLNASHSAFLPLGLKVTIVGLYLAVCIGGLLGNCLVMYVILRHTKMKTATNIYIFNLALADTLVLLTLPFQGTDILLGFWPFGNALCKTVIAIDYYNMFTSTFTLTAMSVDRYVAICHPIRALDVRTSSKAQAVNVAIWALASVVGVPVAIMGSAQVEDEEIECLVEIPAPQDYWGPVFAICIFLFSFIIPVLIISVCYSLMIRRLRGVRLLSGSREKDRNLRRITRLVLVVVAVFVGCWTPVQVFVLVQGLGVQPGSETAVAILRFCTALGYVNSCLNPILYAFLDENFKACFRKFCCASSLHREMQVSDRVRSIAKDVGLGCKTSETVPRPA
# T2 sequence (P35370 whole entry): as above
molecule,measurement,setting,value
Cc1ccc(C(=O)Nc2ccc(S(=O)(=O)O)c3cc(S(=O)(=O)O)cc(S(=O)(=O)O)c23)cc1NC(=O)c1cccc(NC(=O)Nc2cccc(C(=O)Nc3cc(C(=O)Nc4ccc(S(=O)(=O)O)c5cc(S(=O)(=O)O)cc(S(=O)(=O)O)c45)ccc3C)c2)c1 [Suramin],enhancement of spontaneous contraction over basal,[1]; 10^−4 mol/L,210±15%
Nc1c(S(=O)(=O)O)cc(Nc2ccc(Nc3nc(Cl)nc(Nc4cccc(S(=O)(=O)O)c4)n3)c(S(=O)(=O)O)c2)c2c1C(=O)c1ccccc1C2=O [reactive blue 2],enhancement of spontaneous contraction over basal,[1]; 3×10^−5 mol/L,287±20%
"Dyn A: Dynorphin A, peptide with structural homology to Orphanin FQ (YGGFLRRIRPKLKWDNQ; Dynorphin A(1-17); UniProt P01213 207-223, looked up)",type of contractions induced,colonic contractions; infusion 100 nmol/kg/min,evoked non-migrating simultaneous contractions
same,"colonic transit, geometric center",colonic transit; 30 nmol/kg,3.14±0.21
same,"colonic transit, geometric center",colonic transit; 100 nmol/kg,2.42±0.17
Dynorphin 17: Dynorphin peptide tested for effect on OFQ binding,effect on OFQ binding,[2],no effect
FGGFTGAKKSARKLANQ [R8K],IC50,[2],0.1 nM
FGGFTGARKSA [OFQ11],IC50,[2],5000 nM
FGGFTGARKSARCLANQ [K13C],IC50,[2],0.1 nM
"Orphanin FQ(1–12): Orphanin FQ fragment, amino acids 1–12 (FGGFTGARKSAR; Nociceptin; UniProt Q13519 130-141, looked up, fragment)","potency relative to Orphanin FQ(1–17), times less potent",colonic contractions; in vivo,100 times
"Orphanin FQ(1–13): Orphanin FQ fragment, amino acids 1–13",potency in stimulating contractions compared with full peptide Orphanin FQ(1–17),colonic contractions; in vivo,same potency
PPADGS,enhancement of spontaneous contraction over basal,[1]; 3×10^−5 mol/L,5±4%
Pertussis toxin,effect on the inhibitory action of OFQ on cAMP production,OFQ receptor,reversed the inhibitory action of OFQ
"replacement of Arg^8 by L-alanin: Orphanin FQ with Arg8 replaced by L-alanine (FGGFTGAAKSARKLANQ; Nociceptin; UniProt Q13519 130-146, looked up, variant R8A)",Orphanin FQ activity of substituted analogues,colonic contractions; in vivo,complete loss of activity
"substitution by tyrosine: Orphanin FQ with Phe in position 1 substituted by tyrosine (YGGFTGARKSARKLANQ; Nociceptin; UniProt Q13519 130-146, looked up, variant F1Y)",Orphanin FQ activity of substituted analogues,colonic contractions; in vivo,no loss of activity
β endorphin 31: opioid peptide tested for effect on OFQ binding,effect on OFQ binding,[2],no effect
